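How tested: cells in 96-well plates exposed to compound for 48 hours at five concentrations. Here, GI50 denotes the concentration required for 50% inhibition of growth. TGI: concentration producing complete growth inhibition.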
Legend:
Test in all cases: NCI-60 cell line screen, 48 h
786-0 renal = system: 786-0 renal
A498 renal = system: A498 renal
A549 NSCLC = system: A549 NSCLC
ACHN renal = system: ACHN renal
BT-549 breast = system: BT-549 breast
CAKI-1 renal = system: CAKI-1 renal
CCRF-CEM leukemia = system: CCRF-CEM leukemia
COLO 205 colon = system: COLO 205 colon
DU-145 prostate = system: DU-145 prostate
EKVX NSCLC = system: EKVX NSCLC
HCC-2998 colon = system: HCC-2998 colon
HCT-116 colon = system: HCT-116 colon
HCT-15 colon = system: HCT-15 colon
HL-60(TB) leukemia = system: HL-60(TB) leukemia
HOP-62 NSCLC = system: HOP-62 NSCLC
HOP-92 NSCLC = system: HOP-92 NSCLC
HS 578T breast = system: HS 578T breast
HT29 colon = system: HT29 colon
IGROV1 ovarian = system: IGROV1 ovarian
K-562 leukemia = system: K-562 leukemia
KM12 colon = system: KM12 colon
LOX IMVI melanoma = system: LOX IMVI melanoma
M14 melanoma = system: M14 melanoma
MALME-3M melanoma = system: MALME-3M melanoma
MCF7 breast = system: MCF7 breast
MDA-MB-231 breast = system: MDA-MB-231 breast
MDA-MB-435 = system: MDA-MB-435
MOLT-4 leukemia = system: MOLT-4 leukemia
NCI-H226 lung = system: NCI-H226 lung
NCI-H23 lung = system: NCI-H23 lung
NCI-H460 lung = system: NCI-H460 lung
NCI-H522 lung = system: NCI-H522 lung
NCI/ADR-RES ovarian = system: NCI/ADR-RES ovarian
OVCAR-3 ovarian = system: OVCAR-3 ovarian
OVCAR-4 ovarian = system: OVCAR-4 ovarian
OVCAR-5 ovarian = system: OVCAR-5 ovarian
OVCAR-8 ovarian = system: OVCAR-8 ovarian
PC-3 prostate = system: PC-3 prostate
RPMI-8226 leukemia = system: RPMI-8226 leukemia
RXF 393 renal = system: RXF 393 renal
SF-268 CNS = system: SF-268 CNS
SF-295 CNS = system: SF-295 CNS
SF-539 CNS = system: SF-539 CNS
SK-MEL-2 melanoma = system: SK-MEL-2 melanoma
SK-MEL-28 melanoma = system: SK-MEL-28 melanoma
SK-MEL-5 melanoma = system: SK-MEL-5 melanoma
SK-OV-3 ovarian = system: SK-OV-3 ovarian
SN12C renal = system: SN12C renal
SNB-19 CNS = system: SNB-19 CNS
SNB-75 CNS = system: SNB-75 CNS
SR leukemia = system: SR leukemia
SW-620 colon = system: SW-620 colon
T-47D breast = system: T-47D breast
TK-10 renal = system: TK-10 renal
U251 CNS = system: U251 CNS
UACC-257 melanoma = system: UACC-257 melanoma
UACC-62 melanoma = system: UACC-62 melanoma
UO-31 renal = system: UO-31 renal

CCc1cc(Cc2cc(CC)cc(C(C)(C)C)c2O)c(O)c(C(C)(C)C)c1
GI50 (786-0 renal): 3.5 µM | TGI (786-0 renal): 14.4 µM | GI50 (A498 renal): 1.76 µM | TGI (A498 renal): 5.39 µM | GI50 (A549 NSCLC): 3.18 µM | TGI (A549 NSCLC): 13.2 µM | GI50 (ACHN renal): 3.27 µM | TGI (ACHN renal): 10.4 µM | GI50 (BT-549 breast): 2.16 µM | TGI (BT-549 breast): 7.76 µM | GI50 (CAKI-1 renal): 1.92 µM | TGI (CAKI-1 renal): 5.75 µM | GI50 (CCRF-CEM leukemia): 5.16 µM | TGI (CCRF-CEM leukemia): > 100 µM | GI50 (COLO 205 colon): 1.89 µM | TGI (COLO 205 colon): 3.56 µM | GI50 (DU-145 prostate): 3.53 µM | TGI (DU-145 prostate): 13 µM | GI50 (EKVX NSCLC): 2.24 µM | TGI (EKVX NSCLC): 6.77 µM | GI50 (HCC-2998 colon): 2.42 µM | TGI (HCC-2998 colon): 6.52 µM | GI50 (HCT-116 colon): 2.09 µM | TGI (HCT-116 colon): 5.82 µM | GI50 (HCT-15 colon): 3.13 µM | TGI (HCT-15 colon): 11 µM | GI50 (HL-60(TB) leukemia): 4.42 µM | TGI (HL-60(TB) leukemia): > 100 µM | GI50 (HOP-62 NSCLC): 4.39 µM | TGI (HOP-62 NSCLC): 17.1 µM | GI50 (HOP-92 NSCLC): 2.25 µM | TGI (HOP-92 NSCLC): 7.97 µM | GI50 (HS 578T breast): 2.59 µM | TGI (HS 578T breast): 8.29 µM | GI50 (HT29 colon): 2.9 µM | TGI (HT29 colon): 11.5 µM | GI50 (IGROV1 ovarian): 2.53 µM | TGI (IGROV1 ovarian): 8.05 µM | GI50 (K-562 leukemia): 3.37 µM | TGI (K-562 leukemia): 13.9 µM | GI50 (KM12 colon): 2.28 µM | TGI (KM12 colon): 6.35 µM | GI50 (LOX IMVI melanoma): 3.27 µM | TGI (LOX IMVI melanoma): 12 µM | GI50 (M14 melanoma): 3.63 µM | TGI (M14 melanoma): 14.4 µM | GI50 (MALME-3M melanoma): 1.16 µM | TGI (MALME-3M melanoma): 3.48 µM | GI50 (MCF7 breast): 2.49 µM | TGI (MCF7 breast): 7.74 µM | GI50 (MDA-MB-231 breast): 1.87 µM | TGI (MDA-MB-231 breast): 3.92 µM | GI50 (MDA-MB-435): 2.35 µM | TGI (MDA-MB-435): 7.16 µM | GI50 (MOLT-4 leukemia): 3.99 µM | TGI (MOLT-4 leukemia): > 100 µM | GI50 (NCI-H226 lung): 4.88 µM | TGI (NCI-H226 lung): 16.1 µM | GI50 (NCI-H23 lung): 3.33 µM | TGI (NCI-H23 lung): 12.5 µM | GI50 (NCI-H460 lung): 2.59 µM | TGI (NCI-H460 lung): 6.98 µM | GI50 (NCI-H522 lung): 2.38 µM | TGI (NCI-H522 lung): 8.29 µM | GI50 (NCI/ADR-RES ovarian): 3.94 µM | TGI (NCI/ADR-RES ovarian): 14.7 µM | GI50 (OVCAR-3 ovarian): 2.2 µM | TGI (OVCAR-3 ovarian): 5.33 µM | GI50 (OVCAR-4 ovarian): 3.56 µM | TGI (OVCAR-4 ovarian): 12.7 µM | GI50 (OVCAR-5 ovarian): 9.69 µM | TGI (OVCAR-5 ovarian): 21.4 µM | GI50 (OVCAR-8 ovarian): 3.45 µM | TGI (OVCAR-8 ovarian): 12.3 µM | GI50 (PC-3 prostate): 3.86 µM | TGI (PC-3 prostate): 14.7 µM | GI50 (RPMI-8226 leukemia): 3.35 µM | TGI (RPMI-8226 leukemia): 28.4 µM | GI50 (RXF 393 renal): 1.81 µM | TGI (RXF 393 renal): 4.98 µM | GI50 (SF-268 CNS): 3.4 µM | TGI (SF-268 CNS): 12.6 µM | GI50 (SF-295 CNS): 2.06 µM | TGI (SF-295 CNS): 4.88 µM | GI50 (SF-539 CNS): 2.51 µM | TGI (SF-539 CNS): 5.98 µM | GI50 (SK-MEL-2 melanoma): 2.63 µM | TGI (SK-MEL-2 melanoma): 7.08 µM | GI50 (SK-MEL-28 melanoma): 2.39 µM | TGI (SK-MEL-28 melanoma): 7.53 µM | GI50 (SK-MEL-5 melanoma): 3.63 µM | TGI (SK-MEL-5 melanoma): 12.7 µM | GI50 (SK-OV-3 ovarian): 3.81 µM | TGI (SK-OV-3 ovarian): 13.2 µM | GI50 (SN12C renal): 3.82 µM | TGI (SN12C renal): 13.7 µM | GI50 (SNB-19 CNS): 3.13 µM | TGI (SNB-19 CNS): 11.8 µM | GI50 (SNB-75 CNS): 3.37 µM | TGI (SNB-75 CNS): 14.1 µM | GI50 (SR leukemia): 3.28 µM | TGI (SR leukemia): 18.7 µM | GI50 (SW-620 colon): 2.25 µM | TGI (SW-620 colon): 7.07 µM | GI50 (T-47D breast): 2.59 µM | TGI (T-47D breast): 7.87 µM | GI50 (TK-10 renal): 3.03 µM | TGI (TK-10 renal): 9.41 µM | GI50 (U251 CNS): 3.13 µM | TGI (U251 CNS): 11 µM | GI50 (UACC-257 melanoma): 2.79 µM | TGI (UACC-257 melanoma): 11.6 µM | GI50 (UACC-62 melanoma): 2.4 µM | TGI (UACC-62 melanoma): 7.85 µM | GI50 (UO-31 renal): 2.79 µM | TGI (UO-31 renal): 11.7 µM
